Experimental data published in publication PMC6073568, “Efficient Lead Finding, Activity Enhancement and Preliminary Selectivity Control of Nuclear Receptor Ligands Bearing a Phenanthridinone Skeleton” (International Journal of Molecular Sciences, 2018).

Assays:
[1] = system: LNCaP cells (T877A mutation in the AR LBD); test: PSA level (ELISA) in LNCaP cell line; assay type: cell-based, human; settings: for IC50: Homo sapiens, LNCaP, dihydrotestosterone 10 nM, 48 h, ± SEM
Excerpt: Chronic administration of AR antagonists often leads to the development of resistance. […] In contrast, another AR antagonist, enzalutamide, was reported to antagonize AR mutant T877A [23]. Thus, development of a novel chemical class of AR antagonists, different from flutamide analogs seems an attractive approach for the treatment of AR antagonist-resistant cancer, providing further motivation to evaluate steroid surrogates. Therefore, we investigated the antiandrogenic activity of several potent AR antagonists by means of PSA (prostate-specific antigen, an AR-regulated gene) ELISA (enzyme-linked immunosorbent assay) in human prostate cancer cell line LNCaP, which has T877A mutation in the AR LBD.
The human prostate cancer cell line LNCaP (ECACC, London, UK) was routinely maintained in RPMI1640 containing 10% (v/v) fetal bovine serum, and penicillin/streptomycin at 37 °C in a humidified atmosphere of 5% CO2 in air. Cells were cultured in RPMI1640 without phenol red containing 10% (v/v) charcoal-stripped fetal bovine serum, and penicillin/streptomycin at 37 °C in a humidified atmosphere of 5% CO2 in air for 3 days. Then cells were plated in 96-well plates at 1 × 10^4 cells/well and incubated overnight. On the next day, cells were treated with fresh media containing test compound plus dihydrotestosterone (final concentration 10 nM), and incubated for 48 h. Then, PSA levels were measured in the culture supernatants, after 100-fold dilution with the medium, using ELISA (Immunospec Corp., CA, USA Free prostate-specific antigen cat. #E29-212) according to the manufacturer’s instructions. All data points were carried out twice in triplicate.

[2] = molecular target: T1, GR (Homo sapiens, UniProt P04150); test: GR reporter gene assay in HEK293; assay type: cell-based; settings: for IC50: reporter gene assay, HEK293, agonist dexamethasone 1 nM, read-out: GR antagonistic activity (IC50)
T1 construct: expressed in transfected cells; host or cells: HEK293
T1 sequence (P04150 1-777): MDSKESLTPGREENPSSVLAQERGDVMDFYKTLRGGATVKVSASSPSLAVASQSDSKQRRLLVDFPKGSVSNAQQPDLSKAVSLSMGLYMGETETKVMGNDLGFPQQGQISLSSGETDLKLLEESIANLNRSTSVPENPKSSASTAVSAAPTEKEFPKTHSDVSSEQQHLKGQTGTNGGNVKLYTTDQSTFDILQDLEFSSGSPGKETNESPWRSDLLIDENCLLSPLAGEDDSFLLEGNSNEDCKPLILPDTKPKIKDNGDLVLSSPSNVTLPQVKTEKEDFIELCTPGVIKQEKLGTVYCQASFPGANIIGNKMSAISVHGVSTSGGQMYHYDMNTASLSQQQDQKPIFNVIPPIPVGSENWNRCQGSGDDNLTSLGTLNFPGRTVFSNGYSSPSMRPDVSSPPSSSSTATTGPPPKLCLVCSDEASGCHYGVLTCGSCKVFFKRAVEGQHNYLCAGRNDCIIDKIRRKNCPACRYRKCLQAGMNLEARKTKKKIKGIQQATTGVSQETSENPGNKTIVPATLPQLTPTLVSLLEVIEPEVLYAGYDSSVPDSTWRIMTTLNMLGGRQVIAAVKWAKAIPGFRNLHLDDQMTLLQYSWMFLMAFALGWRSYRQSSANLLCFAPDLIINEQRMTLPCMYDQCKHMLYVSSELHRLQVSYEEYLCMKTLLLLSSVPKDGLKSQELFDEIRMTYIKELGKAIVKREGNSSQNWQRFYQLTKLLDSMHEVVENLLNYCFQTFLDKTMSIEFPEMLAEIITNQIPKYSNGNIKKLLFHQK

[3] = molecular target: T2, RORβ (Homo sapiens, UniProt Q92753); settings: reporter gene assay, HEK293; read-out: RORβ inverse agonistic activity (IC50); cited from earlier work
T2 construct: expressed in transfected cells; host or cells: HEK293
T2 sequence (Q92753 1-459 isoform Q92753-1): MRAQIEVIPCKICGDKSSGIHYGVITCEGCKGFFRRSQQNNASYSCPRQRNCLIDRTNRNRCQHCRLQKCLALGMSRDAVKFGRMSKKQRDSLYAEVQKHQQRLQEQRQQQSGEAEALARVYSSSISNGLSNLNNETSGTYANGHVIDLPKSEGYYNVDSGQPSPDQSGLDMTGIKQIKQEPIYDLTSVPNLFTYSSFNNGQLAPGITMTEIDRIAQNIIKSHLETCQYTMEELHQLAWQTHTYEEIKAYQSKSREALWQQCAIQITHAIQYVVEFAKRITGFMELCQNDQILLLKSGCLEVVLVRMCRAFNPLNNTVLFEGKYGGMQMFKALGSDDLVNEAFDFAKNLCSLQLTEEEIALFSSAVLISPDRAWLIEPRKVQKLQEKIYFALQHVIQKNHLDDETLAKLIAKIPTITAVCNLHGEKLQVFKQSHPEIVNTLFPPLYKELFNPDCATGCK

[4] = molecular target: T3, PR (Homo sapiens, UniProt P06401); settings: cited from earlier work; for IC50: alkaline phosphatase, T47D cells, progesterone 1 nM, read-out: PR antagonistic activity (IC50)
T3 sequence (P06401 1-933): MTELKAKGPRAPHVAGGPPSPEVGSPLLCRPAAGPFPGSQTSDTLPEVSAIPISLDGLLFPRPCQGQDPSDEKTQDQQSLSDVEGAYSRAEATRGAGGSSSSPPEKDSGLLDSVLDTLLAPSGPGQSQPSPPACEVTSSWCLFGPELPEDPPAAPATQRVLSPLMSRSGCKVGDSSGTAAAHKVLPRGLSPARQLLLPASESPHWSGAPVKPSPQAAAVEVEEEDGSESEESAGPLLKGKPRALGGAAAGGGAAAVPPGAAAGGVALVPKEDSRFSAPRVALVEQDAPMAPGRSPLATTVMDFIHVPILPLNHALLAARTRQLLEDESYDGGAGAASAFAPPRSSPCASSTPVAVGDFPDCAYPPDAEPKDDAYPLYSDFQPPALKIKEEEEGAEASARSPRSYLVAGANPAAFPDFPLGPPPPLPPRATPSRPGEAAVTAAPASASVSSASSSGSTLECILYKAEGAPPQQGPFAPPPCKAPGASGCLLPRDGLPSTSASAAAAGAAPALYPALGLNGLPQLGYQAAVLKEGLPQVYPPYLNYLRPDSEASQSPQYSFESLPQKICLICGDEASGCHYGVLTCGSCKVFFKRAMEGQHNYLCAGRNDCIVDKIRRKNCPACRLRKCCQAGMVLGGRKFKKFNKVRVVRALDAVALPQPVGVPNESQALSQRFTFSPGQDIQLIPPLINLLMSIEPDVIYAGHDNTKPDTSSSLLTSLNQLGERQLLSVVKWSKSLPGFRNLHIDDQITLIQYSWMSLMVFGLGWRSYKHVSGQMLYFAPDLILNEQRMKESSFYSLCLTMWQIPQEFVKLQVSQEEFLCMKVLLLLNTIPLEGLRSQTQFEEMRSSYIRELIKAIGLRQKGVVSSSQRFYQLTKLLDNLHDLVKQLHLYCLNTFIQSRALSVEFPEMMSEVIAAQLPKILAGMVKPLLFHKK

Row | Structure (SMILES) | IC50 [1] [µM] | IC50 [2] [µM] | IC50 [3] [µM] | enhanced PR activity compared with unsubstituted analog 12 [4] | improved GR activity compared with 12 [2] [fold] | IC50 [4] [µM] | antiandrogenic activity in LNCaP [1]
1 | O=c1[nH]c2ccc(C(O)(C(F)(F)F)C(F)(F)F)cc2c2ccccc12 [Compound 1] | > 10 | > 20 | > 20 | – | – | – | –
2 | CCCCn1c(=O)c2ccccc2c2ccccc21 [Compound 7] | – | > 20 | 13 | – | – | – | –
3 | CCCCn1c(=O)c2ccccc2c2cc(C(C)(C)C)ccc21 [Compound 10] | – | > 20 | 13 | – | – | – | –
4 | CCCCn1c(=O)c2ccccc2c2cc(CO)ccc21 [Compound 11] | – | > 20 | > 20 | – | – | – | –
5 | Cn1c(=O)c2ccccc2c2cc(C(O)(C(F)(F)F)C(F)(F)F)ccc21 [Compound 13] | > 10 | > 20 | > 20 | – | – | – | –
6 | CCn1c(=O)c2ccccc2c2cc(C(O)(C(F)(F)F)C(F)(F)F)ccc21 [Compound 14] | – | > 20 | > 20 | – | – | – | –
7 | CCCCCCCCCn1c(=O)c2ccccc2c2cc(C(O)(C(F)(F)F)C(F)(F)F)ccc21 [Compound 17] | – | > 20 | > 20 | – | – | – | –
8 | CCCCn1c(=O)c2ccccc2c2c(OC)c(C(O)(C(F)(F)F)C(F)(F)F)ccc21 [Compound 18] | – | > 20 | > 20 | – | – | – | –
9 | CCCCn1c(=O)c2ccccc2c2cc(C(O)(C(F)(F)F)C(F)(F)F)c(OC)cc21 [Compound 19] | – | 1.3 | 8.2 | more than 3 fold | 5.7 | – | –
10 | CCCCn1c(=O)c2ccccc2c2cc(C(O)(C(F)(F)F)C(F)(F)F)cc(OC)c21 [Compound 20] | – | 3.9 | 6.9 | > 2 fold | – | – | –
11 | CCCCn1c(=O)c2c(OC)cccc2c2cc(C(O)(C(F)(F)F)C(F)(F)F)ccc21 [Compound 21] | – | 14 | 15 | – | – | – | –
12 | CCCCn1c(=O)c2cc(OC)ccc2c2cc(C(O)(C(F)(F)F)C(F)(F)F)ccc21 [Compound 22] | – | 8.2 | 15 | – | – | – | –
13 | CCCCn1c(=O)c2ccc(OC)cc2c2cc(C(O)(C(F)(F)F)C(F)(F)F)ccc21 [Compound 23] | – | 10 | 7.2 | – | – | – | –
14 | CCCCn1c(=O)c2cccc(OC)c2c2cc(C(O)(C(F)(F)F)C(F)(F)F)ccc21 [Compound 24] | – | > 20 | > 20 | – | – | – | –
15 | CCCCn1c(=O)c2ccccc2c2cc(C(O)(C(F)(F)F)C(F)(F)F)c(OC)c(OC)c21 [Compound 25] | – | > 20 | > 10 | – | – | 0.51 | –
16 | CCCCn1c(=O)c2ccccc2c2cc(C(O)(C(F)(F)F)C(F)(F)F)c3c(c21)OCO3 [Compound 26] | 0.56 ± 0.26 | 0.76 | > 20 | – | – | 0.23 | –
17 | CCCCn1c(=O)c2cc(OC)ccc2c2cc(C(O)(C(F)(F)F)C(F)(F)F)c(OC)cc21 [Compound 27] | – | 1.7 | 13 | – | – | 0.3 | –
18 | CCCCn1c(=O)c2cc(OC)ccc2c2cc(C(O)(C(F)(F)F)C(F)(F)F)cc(OC)c21 [Compound 28] | – | 5.2 | 11 | – | – | 0.34 | –
19 | CCCCn1c(=O)c2c(OC)c(OC)ccc2c2cc(C(O)(C(F)(F)F)C(F)(F)F)ccc21 [Compound 29] | – | 7.9 | 7.7 | – | – | 4.2 | –
20 | CCCCn1c(=O)c2c(OC)cc(OC)cc2c2cc(C(O)(C(F)(F)F)C(F)(F)F)ccc21 [Compound 30] | – | > 20 | > 20 | – | – | > 20 | –
21 | CCCCn1c(=O)c2cc(OC)c(OC)cc2c2cc(C(O)(C(F)(F)F)C(F)(F)F)ccc21 [Compound 31] | – | 17 | 16 | – | – | 9.6 | –
22 | O=c1[nH]c2c(F)cc(C(O)(C(F)(F)F)C(F)(F)F)cc2c2ccccc12 [Compound 32] | 0.49 ± 0.26 | 6.9 | 14 | – | – | – | –
23 | O=c1[nH]c2ccc(C(O)(C(F)(F)F)C(F)(F)F)cc2c2cccc(F)c12 [Compound 33] | 0.19 ± 0.095 | 9.8 | 9.8 | – | – | – | –
24 | O=c1[nH]c2ccc(C(O)(C(F)(F)F)C(F)(F)F)cc2c2ccc(F)cc12 [Compound 34] | > 10 | > 20 | 11 | – | – | – | –
25 | O=c1[nH]c2ccc(C(O)(C(F)(F)F)C(F)(F)F)cc2c2cc(F)ccc12 [Compound 35] | 0.55 ± 0.11 | 7 | 8.3 | – | – | – | –
26 | COc1cc(C(O)(C(F)(F)F)C(F)(F)F)cc2c1[nH]c(=O)c1ccccc12 [Compound 39] | – | > 20 | > 20 | – | – | – | –
27 | CCc1cc(C(O)(C(F)(F)F)C(F)(F)F)cc2c1[nH]c(=O)c1ccccc12 [Compound 41] | – | > 20 | > 20 | – | – | – | –
28 | CCCc1cc(C(O)(C(F)(F)F)C(F)(F)F)cc2c1[nH]c(=O)c1ccccc12 [Compound 42] | – | 16 | 11 | – | – | – | –
29 | O=c1[nH]c2c(Cl)cc(C(O)(C(F)(F)F)C(F)(F)F)cc2c2ccccc12 [Compound 43, 4-Chloro-2-(1,1,1,3,3,3-hexafluoro-2-hydroxypropan-2-yl)phenanthridin-6(5H)-one] | > 10 | > 20 | – | – | – | – | did not show antiandrogenic activity
